In ChEMBL document CHEMBL4219227, “Polyprenylated polycyclic acylphloroglucinol: Angiogenesis inhibitor from Garcinia multiflora” (Bioorg Med Chem Lett, 2018):
The source made the active and inactive calls. The calls are words filed in the database; no cut-off is given here.

What was measured:
Format in all cases: functional
PC-3 = assay: Growth inhibition of human PC3 cells after 48 hrs by SRB assay; settings: PC-3, 48 h
SK-HEP1 = assay: Growth inhibition of human SKHEP1 cells after 48 hrs by SRB assay; settings: SK-HEP1, 48 h
[1] = Antiangiogenic activity in human CD34-positive EPC assessed as suppression of capillary-like structure formation after 24 hrs by phase contrast microscopic method
Homo sapiens [2] = species: Homo sapiens; assay: Growth inhibition of human CD34-positive EPC at 10 uM after 48 hrs by SRB assay
Homo sapiens [3] = species: Homo sapiens; assay: Antiangiogenic activity in human CD34-positive EPC assessed as suppression of capillary-like structure formation at 20 uM after 24 hrs by phase contrast microscopic method
Homo sapiens [4] = species: Homo sapiens; assay: Antiangiogenic activity in human CD34-positive EPC assessed as suppression of cell reorganization at 20 uM after 24 hrs by phase contrast microscopic method

| GI50 (PC-3) [µM] | GI50 (SK-HEP1) [µM] | IC50 [1] [µM] | SMILES | growth inhibition (GI) (Homo sapiens [2]) | Activity (Homo sapiens [3]) | Activity (Homo sapiens [4]) |
| --- | --- | --- | --- | --- | --- | --- |
| 0.013 | 0.011 |  | CC(=O)O[C@H]1C(=O)[C@@]2(C)[C@H]([C@H](OC(=O)c3ccccc3)[C@]3(O)C[C@H](OC(=O)[C@H](O)[C@@H](NC(=O)c4ccccc4)c4ccccc4)C(C)=C1C3(C)C)[C@]1(OC(C)=O)CO[C@@H]1C[C@@H]2O [PACLITAXEL] |  |  |  |
| 24.8 | > 30 | 16.5 | CC(C)=CCC1=C2OC(C)(C)[C@@H](CC=C(C)C)C[C@@]23C[C@@H](CC=C(C)C)C(C)(C)[C@@](C(=O)c2ccccc2)(C1=O)C3=O [GARCIMULTIFLORONE A] | Active | Active | Active |
| 6.6 | 4.3 | 14.3 | C=C(C)[C@@H](CC=C(C)C)C[C@]12C[C@@H](CC=C(C)C)C(C)(C)[C@](CC=C(C)C)(C1=O)C(O)=C(C(=O)c1ccccc1)C2=O | Active | Active | Active |
| 18.2 | > 30 | 15.7 | C=C(C)[C@@H](CC=C(C)C)C[C@@]12C[C@@H](CC=C(C)C)C(C)(C)[C@]3(C=CC(C)(C)OC3=C(C(=O)c3ccccc3)C1=O)C2=O [GARCIMULTIFLORONE B] | Active | Active | Active |
